Measured values as given in US9255094B2, “Pyrido[4,3-B]indoles and methods of use” (Medivation Technologies, Inc., priority 2009, dated 2016).

How the values were obtained:
[1] = target: T1, human recombinant adrenergic α2B receptor (Homo sapiens, UniProt P18089); assay: Adrenergic α2B radioligand binding assay ([3H]Rauwolscine); conditions: compound at 0.1 μM; 2.5 nM [3H]Rauwolscine; CHO-K1 cells; read-out: Percent Inhibition of ligand binding, Adrenergic (0.1 μM) a2B
T1 construct: expressed in transfected cells; host or cells: Chinese hamster ovary (CHO-K1) cells
T1 sequence (P18089 1-450): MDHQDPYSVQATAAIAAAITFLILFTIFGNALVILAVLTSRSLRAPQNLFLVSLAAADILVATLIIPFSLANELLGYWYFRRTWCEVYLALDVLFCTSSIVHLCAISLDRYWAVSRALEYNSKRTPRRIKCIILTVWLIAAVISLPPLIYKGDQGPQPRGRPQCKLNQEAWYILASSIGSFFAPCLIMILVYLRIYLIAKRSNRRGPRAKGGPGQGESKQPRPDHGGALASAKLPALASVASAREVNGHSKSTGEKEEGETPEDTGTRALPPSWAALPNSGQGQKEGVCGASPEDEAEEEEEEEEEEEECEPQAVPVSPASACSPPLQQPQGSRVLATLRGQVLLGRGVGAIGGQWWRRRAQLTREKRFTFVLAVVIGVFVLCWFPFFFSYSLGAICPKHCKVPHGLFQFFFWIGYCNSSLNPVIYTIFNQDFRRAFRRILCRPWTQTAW
Method: To evaluate in radioligand binding assays the activity of compounds of the invention, human recombinant adrenergic α2B receptor expressed in Chinese hamster ovary (CHO-K1) cells (Uhlen S et al., Eur. J. Pharmacol. 343(1):93, 1998) in a modified Tris-HCl buffer (50 mM Tris-HCl, pH 7.4, 12.5 mM MgCl2, 1 mM EDTA, 0.2% BSA) was used. Compounds of the invention were incubated with 2.5 nM [^3H]Rauwolscine for 60 min at 25° C. Non-specific binding was estimated in the presence of 10 μM Prozosin. Receptor proteins were filtered and washed, the filters were then counted to determine [^3H]Rauwolscine specifically bound.

[2] = target: T2, rat adrenergic α1A receptor (Rattus norvegicus, UniProt P43140); assay: Adrenergic α1A radioligand binding assay ([3H]Prozosin); conditions: compound at 0.1 μM; 0.25 nM [3H]Prozosin; Wistar Rat submaxillary glands; read-out: Percent Inhibition of ligand binding, Adrenergic (0.1 μM) a1A
T2 construct: from tissue; host or cells: Wistar Rat submaxillary glands
T2 sequence (P43140 1-466): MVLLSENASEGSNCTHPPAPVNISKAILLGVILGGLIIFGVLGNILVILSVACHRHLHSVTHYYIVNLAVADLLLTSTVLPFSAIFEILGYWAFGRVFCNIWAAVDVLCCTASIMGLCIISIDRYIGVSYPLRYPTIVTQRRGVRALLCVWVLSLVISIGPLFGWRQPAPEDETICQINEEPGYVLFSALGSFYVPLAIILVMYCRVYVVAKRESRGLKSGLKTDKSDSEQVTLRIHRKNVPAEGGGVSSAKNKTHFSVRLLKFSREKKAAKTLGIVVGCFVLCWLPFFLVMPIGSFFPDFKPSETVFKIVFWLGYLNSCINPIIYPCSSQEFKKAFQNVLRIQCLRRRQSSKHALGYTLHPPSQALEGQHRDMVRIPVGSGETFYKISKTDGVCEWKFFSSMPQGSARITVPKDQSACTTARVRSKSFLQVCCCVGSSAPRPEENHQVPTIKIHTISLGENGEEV
Method: To evaluate in radioligand binding assays the activity of compounds of the invention, rat adrenergic α1A receptor obtained from Wistar Rat submaxillary glands (Michel, A. D. et al., Br. J. Pharmacol. 98:883, 1989) in a modified Tris-HCl buffer (50 mM Tris-HCl buffer, pH 7.4, 0.5 mM EDTA) is used. Compounds of the invention are incubated with 0.25 nM [^3H]Prozosin for 60 min at 25° C. Non-specific binding is estimated in the presence of 10 μM phentolamine. Receptor proteins are filtered and washed, the filters are then counted to determine [^3H]Prozosin specifically bound. Compounds of the invention are screened at 1 μM or lower, using 1% DMSO as vehicle. Compounds of the invention are tested in this biochemical assay and percent inhibition of specific binding is determined.

[3] = target: T3, human recombinant adrenergic α1D receptor (Homo sapiens, UniProt P25100); assay: Adrenergic α1D radioligand binding assay ([3H]Prozosin); conditions: compound at 0.1 μM; 0.6 nM [3H]Prozosin; HEK-293 cells; read-out: Percent Inhibition of ligand binding, Adrenergic (0.1 μM) a1D
T3 construct: expressed in transfected cells; host or cells: human embryonic kidney (HEK-293) cells
T3 sequence (P25100 1-572): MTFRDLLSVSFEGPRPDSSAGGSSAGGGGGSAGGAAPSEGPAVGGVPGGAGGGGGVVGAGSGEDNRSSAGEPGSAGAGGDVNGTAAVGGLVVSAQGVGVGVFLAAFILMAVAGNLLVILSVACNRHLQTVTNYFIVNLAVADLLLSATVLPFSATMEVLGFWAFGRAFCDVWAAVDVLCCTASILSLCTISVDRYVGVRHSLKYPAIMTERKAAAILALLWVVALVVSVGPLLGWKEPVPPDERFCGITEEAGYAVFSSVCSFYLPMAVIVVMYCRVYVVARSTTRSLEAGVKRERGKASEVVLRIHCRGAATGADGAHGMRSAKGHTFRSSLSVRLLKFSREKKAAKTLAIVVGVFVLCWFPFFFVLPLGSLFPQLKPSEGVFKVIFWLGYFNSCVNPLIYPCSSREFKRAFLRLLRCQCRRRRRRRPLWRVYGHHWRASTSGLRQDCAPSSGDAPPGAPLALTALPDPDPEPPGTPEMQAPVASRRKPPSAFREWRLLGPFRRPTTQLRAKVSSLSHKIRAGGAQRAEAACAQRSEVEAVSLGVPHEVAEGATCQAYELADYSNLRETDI
Method: Compounds of invention were incubated with 0.6 nM [^3H]Prozosin for 60 min at 25° C. Non-specific binding was estimated in the presence of 10 μM phentolamine Receptor proteins were filtered and washed, the filters were then counted to determine [^3H]Prozosin specifically bound.

Row | Compound | inhibition at 0.1 µM [1] [%] | inhibition at 0.1 µM [2] [%] | inhibition at 0.1 µM [3] [%]
1 | COc1ccc([C@](C)(O)Cn2c3c(c4cc(C)ccc42)CN(C)CC3)cc1 [Compound 1-20, (S)-1-(2,8-Dimethyl-3,4-dihydro-1H-pyrido[4,3-b]indol-5(2H)-yl)-2-(4-methoxyphenyl)propan-2-ol] | 79 | 13 | 22
2 | CC[C@](O)(Cn1c2c(c3cc(C)ccc31)CN(C)CC2)c1ccc(F)cc1 [Compound 1-60, (R)-1-(2,8-Dimethyl-3,4-dihydro-1H-pyrido[4,3-b]indol-5(2H)-yl)-2-(4-fluorophenyl)butan-2-ol] | 1 | -8 | 13
3 | CC[C@](O)(Cn1c2c(c3cc(C)ccc31)CN(C)CC2)c1ccncc1 [Compound 1-63, (R)-1-(2,8-Dimethyl-3,4-dihydro-1H-pyrido[4,3-b]indol-5(2H)-yl)-2-(pyridine-4-yl)butan-2-ol] | 47 | 8 | -13
